Entries after “also recorded” stand apart in the source; their conditions may differ.
How the values were obtained:
[1] = test system: cells in tissue culture; settings: Purdie 1979; cited from earlier work
[2] = test system: radiation-induced dermatitis on backs of rats; assay: Radiation-induced dermatitis in rat skin model; assay type: in vivo; settings: for protective effect against radiation-induced dermatitis (FIG. 8D): topical in carrier vehicle before 5.5 min Cs137 irradiation
Protocol: To determine efficacy of chemoprotective polyamines in preventing radiation-induced dermatitis, adult rats were topically treated with the compounds before and after radiation treatment. Rats were exposed to medically relevant levels of radiation that could induce clinical radiation dermatitis. Sprague Dawley rats (Harlan Spraque Dawley) at 4-6 weeks-old were anesthetized with sodium pentobarbital at 40 mg/kg body weight (Sigma, St. Louis, Mo.) prior to radiation exposure. A defined area (1.5×2 cm) on the backs of rats was irradiated using a Mark I, Model 30, Cs 137 irradiator (J. L. Sheppard & Associates). Before topical drug treatment or irradiation, the backs of the rats were clipped using an Oster clipper at the closest setting. The rest of the body was protected from radiation exposure using a lead shield (2.5 cm thick). A dose response study was initially performed to reproduce relevant dermatitis that matched the Grade (I-IV) scale used to score the severity of radiation-induced dermatitis in humans. The severity of the dermatitis was scored 12-13 days post-irradiation at the peak of the dermal inflammation. […] Radiation dermatitis of Grade II-III was considered most clinically relevant, so a radiation dose of 8.7 Gy was typically used in the rats. The clipped back region on the rats was treated topically with aminothiol in delivery vehicle four times in the two hours immediately preceding irradiation (at −2 hr, −1 hr, −30 min, and −10 min; irradiation was at 0 min
The polyamines or amino thiols were prepared in a delivery vehicle, consisting of ethanol:propylene glycol:water, ranging from 0:95:5 to 50:30:20 depending upon the solubility characteristics of the topical molecule, and the degree of dermal penetration desired. A vehicle composed of an emulsion formed by sonication of ‘nonionic liposomes’ and isopropyl myristate was also used (Jayaraman, S. et al., J. Pharm. Sci. 85:1082-1084, 1996). In a commonly used protocol, 220 μl of topical drug/vehicle was applied to an area ˜2 cm×3 cm on the back in the 2 hr just prior to irradiation. Rats treated with only the delivery vehicle served as controls. Twelve to thirteen days post-radiation, the rats were evaluated for dermatitis within the irradiated area. In early studies, a modified scoring scale described by Masuda K. et al., Int. J. Radiation Oncol. Biol. Phys: 12, 1645 (1986) was used, and in later studies, including those described here, a simplified scoring system was used in which the percentage of the irradiated, rectangular field covered with scrab material was estimated between 0 and 100% to provide scores on a scale between 0 and 100.
This example relates to the use of a rat skin model to evaluate the efficacy of two amino thiol compounds in preventing radiation-induced dermatitis. To test whether topically-applied aminothiols could prevent the radiodermatitis caused by external beam radiotherapy, the rodent model described in Example 3 was slightly modified. Briefly, the radiodermatitis model involved: • i) shaving the backs of 6-7 week old rats or mice; • ii) applying four topical doses of aminothiol in a delivery vehicle composed of ethanol:propylene glycol (PG):water in the 2 hr prior to irradiation; • iii) irradiating a small, 3 cm^2 (1.5×2 cm) area on the animal's back (through a window in a lead plate) with 8.7 Gy of γ radiation from a Cs^137 source; and • iv) scoring the severity of the dermatitis 12-13 days later, at the peak of the inflammatory skin reaction. Radiodermatitis severity was scored by estimating the percentage of the irradiated field that was covered by scrab material.
Methods: Treatments were applied as described in Example 6.

[3] = test system: 23SK human skin cells; assay: Protection of human skin cells against phosphoramide mustard; assay type: cell-based; settings: 4 mM preload 30 min, phosphoramide mustard 40 min
Protocol: An in vitro cell culture assay was developed to determine the ability of chemoprotective polyamines, chemoprotective amino thiols and other molecules to confer radioprotection or chemoprotection to human skin cells. Diploid, human foreskin fibroblasts (23SK cells) were maintained in DMEM supplemented with 20% fetal bovine serum and gentamycin. For toxicity experiments, cells were seeded at a density of 750 cells/100 μl of DMEM+20% FBS+gentamycin into each well of 96 well plates (Corning, Corning, N.Y.). The next day, solutions of protective drug molecules, typically at 4 mM concentration, were prepared in Dulbecco's phosphate-buffered saline (D-PBS); each stock was titrated back to pH 7.0-7.5, if necessary, using sterile HCl or NaOH. Media was aspirated from cell wells, wells were rinsed with D-PBS, and loading solutions were then added to wells. Cells were typically exposed to loading solutions for 30 min. Following this drug loading period, plates were either placed directly into a Shepherd Mark II Cs^137 irradiator for irradiation (38 min), or wells were aspirated and the solution immediately replaced with a solution of D-PBS containing 350 μM phosphoramide mustard (obtained from NCI Chemical Repository) for a 40 min incubation at room temperature. After either treatment, wells were aspirated, rinsed and then given 100 μl of DMEM+20% FBS+gentamycin. Plates were maintained in 5% CO2 within a humidified chamber within a humidified incubator for 4-5 days at 37° C. […] of MTT solution (Promega Corp., Madison, Wis.) was then added to each well, and color development occurred over the next 3 hr at 37° C. Absorbance at 490 nm was then determined using a plate reader, and cell growth in treated wells compared to cell growth in wells loaded with vehicle and not irradiated or exposed to phosphoramide mustard was plotted using GraphPad software.

[4] = test system: cell cycle; settings: Jeitner and Renton 1996; Snyder and Grdina 2000; Kramer et al. 1997; cited from earlier work
[5] = test system: primary, human skin fibroblasts; assay: Cell cycle block in human skin fibroblasts (flow cytometry); assay type: cell-based; settings: for cell cycle block (phase): log-phase human fibroblast cultures; for reversibility of cell cycle block: upon washout or removal of the drug
Protocol: (§1) Methods (Cell cycle and p21 western): The cell culture experiments were done using primary, human skin fibroblasts, one strain of which (BJ cells) was obtained from ATCC (American Type Culture Collection). […] For flow cytometry and p21 experiments, cells were plated at 0.5×10^6 cells/150 mm plate, and 24 hr later, drug molecules (4100 μM PrC-210, 600 μM cysteamine, 205 μM cysteamine analog, 0.4 μg/ml colcemid) were added to medium. […] (Cancer Research. 61(21):7754-62, 2001). As per the cited reference, cells were fixed, treated with RNAse, and stained with propidium iodide for flow cytometry, or cells were extracted, proteins electrophoresed, and probed with anti-p21 antibody (#SXM-30) for western blot analysis.

[6] = test system: p21 in human fibroblasts; assay: p21 western blot in human skin fibroblasts; assay type: cell-based; settings: IC70 concentration of PrC-210 (4100 μM); cysteamine 600 μM; 30 hour exposure
Protocol: as §1

[7] = test system: Phase I/Phase II/Phase III drug metabolizing/exporting gene products in neonate rat skin; assay: Nucleic acid arrays of topically treated neonate rat skin; assay type: in vivo; settings: topical treatment of neonate rat skin for 3-6 days
Text: Two examples of genes whose expression was induced following topical β-naphthaflavone treatment included, glutathione S-transferase (several separate isoforms that conjugate/detoxify drug electrophiles), and MRP (mdr-related protein, drug exporting membrane pump).

[8] = test system: mouse skin; settings: cited from earlier work

Row | Structure (SMILES) | radioprotector activity when added to cells in tissue culture [1] | protective effect against radiation-induced dermatitis (FIG. 8D) [2] | protective effect on cell growth against phosphoramide mustard (FIG. 8B) [3] | cell cycle arrest reported in literature [4] | cell cycle block (phase) [5] | reversibility of cell cycle block [5] | effect on radiation dermatitis ([2]; 600-1200 mM applied to backs of rats two hours prior to radiation) | p21 expression [6] | number of Phase I/Phase II/Phase III drug metabolizing/exporting gene products activated [7] | effect of systemic drug on radiation-induced skin damage ([8]; systemic, mice, Lowy et al. 1972) | protective effect when applied topically to mouse skin ([8]; topical, Verhey et al. 1983) | effect of topical application on radiation-induced skin damage ([8]; topical, mice, Lowy et al. 1972)
1 | NCCCNCCS [WR-1065] | active as a radioprotector | lack of a protective effect | not significantly different than that seen in the vehicle control | arresting cells in the G2 phase | cell cycle block in G2; also recorded: G2 cell cycle block that could not be reversed | not reversible |  |  |  |  |  | 
2 | NCCS [cysteamine] | active as a radioprotector |  | conferred a protective effect | arrest in G2/M | cell cycle block in G2; also recorded: G2 cell cycle block that could not be reversed | not reversible | eliminate radiation dermatitis | does not induce such expression |  |  |  | 
3 | O=c1cc(-c2ccccc2)oc2ccc3ccccc3c12 [β-naphthaflavone] |  |  |  |  |  |  |  |  | at least 40 |  |  | 
4 | NCCCNCCSP(=O)(O)O [amifostine] |  | lack of a protective effect | not significantly different than that seen in the vehicle control | arresting cells in the G2 phase | G2 cell cycle block that could not be reversed |  |  |  |  | effective in reducing radiation-induced skin damage | no protective effect | showed no protective effect

From patent US7314959B2, “Amino thiol compounds and compositions for use in conjunction with cancer therapy” (Wisconsin Alumni Research Foundation, priority 2003, dated 2008)
